Where a name gives a salt, the structure may show the parent alone.
Tests used:
[1] = molecular target: T1, rat EP1 receptor (Rattus norvegicus, UniProt P70597); assay: Rat EP1 receptor agonistic/antagonistic action (intracellular Ca2+, FLIPR, HEK293 stable expression cells); assay type: cell-based; details: inhibition of intracellular Ca2+ increasing action by PGE2
T1 construct: expressed in transfected cells
T1 sequence (P70597 1-405): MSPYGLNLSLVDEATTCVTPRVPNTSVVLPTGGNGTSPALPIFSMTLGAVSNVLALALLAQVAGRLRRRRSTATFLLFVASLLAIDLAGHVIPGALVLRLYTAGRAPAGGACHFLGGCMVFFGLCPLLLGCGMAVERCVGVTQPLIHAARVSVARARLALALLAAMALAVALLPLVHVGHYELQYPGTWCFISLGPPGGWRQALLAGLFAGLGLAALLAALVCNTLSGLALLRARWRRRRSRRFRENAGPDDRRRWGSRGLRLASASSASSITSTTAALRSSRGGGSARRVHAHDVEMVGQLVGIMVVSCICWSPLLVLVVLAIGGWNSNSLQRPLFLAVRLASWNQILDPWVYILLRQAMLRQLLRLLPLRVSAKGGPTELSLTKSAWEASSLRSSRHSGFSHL
Protocol: Using rat EP1 or rat EP3β receptor stable expression cells, the intracellular Ca^2+ concentration was measured using a fluorescent imaging plate reader (FLIPR manufactured by Molecular Devices Corporation). The agonistic activity was evaluated by the intracellular Ca^2+ increasing action of the test compound, and the antagonistic activity was evaluated by the inhibiting action of the test compound on the intracellular Ca^2+ increasing action by PGE2.
The cDNA of the rat EP 1 or EP3β receptor was subcloned into an expression vector (pcDNA3.1-V5-His-topo, manufactured by Invitrogen Corporation). This expression vector was introduced into HEK293 cells (American Type Culture Collection) to prepare a rat EP1 or EP3β receptor stable expression cell line. These cells were seeded onto a 96-well poly-D-lysin treated black wall clear bottom plate (manufactured by Becton, Dickinson and Company) at 2 to 3×10^4 cell/well, and used for the experiment the next day. The measurement of the intracellular Ca^2+ concentration was carried out by an FLIPR calcium 3 assay kit (manufactured by Molecular Devices Corporation). The culture medium of each well was removed by suction and replaced with a loading buffer (Hank's balanced salt solution containing 20 mM HEPES-NaOH (pH 7.4), 2.5 mM Probenecid, 0.1% bovine serum albumin, and a color), followed by incubating at room temperature for 3 hours and loading a color. For the evaluation of the agonistic action, the change in the intracellular Ca^2+ concentration was determined from the difference in the maximum value of the intracellular Ca^2+ concentration after the addition of the test compound and the value before the addition of the test compound. For the evaluation of the antagonistic action, after incubating the test compound for 5 minutes, PGE2 was added thereto to determine the change in the intracellular Ca^2+ concentration by PGE2.
Further, NE means that the action has no significance.

[2] = molecular target: T2, rat EP2 receptor (Rattus norvegicus, UniProt Q62928); assay: Rat EP2 receptor agonistic/antagonistic action (cAMP assay, CHO-K1 stable expression cells); assay type: cell-based; details: cAMP increasing action, 1 μM PGE2 taken as 100%, NE means that the action has no significance
T2 construct: expressed in transfected cells
T2 sequence (Q62928 whole entry): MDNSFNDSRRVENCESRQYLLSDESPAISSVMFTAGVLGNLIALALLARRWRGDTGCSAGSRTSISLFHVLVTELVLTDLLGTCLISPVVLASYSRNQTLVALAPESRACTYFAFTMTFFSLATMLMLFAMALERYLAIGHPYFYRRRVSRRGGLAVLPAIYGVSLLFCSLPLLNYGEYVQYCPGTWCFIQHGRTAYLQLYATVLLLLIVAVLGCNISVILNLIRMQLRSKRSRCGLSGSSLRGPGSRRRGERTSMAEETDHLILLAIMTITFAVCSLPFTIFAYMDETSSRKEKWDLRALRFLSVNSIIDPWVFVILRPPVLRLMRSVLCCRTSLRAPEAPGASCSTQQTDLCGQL
Protocol: For a rat EP2 receptor, stable expression cells were used to carry out a cAMP assay. The agonistic activity was evaluated by the cAMP increasing action by the test compound, and the antagonistic activity was evaluated by the inhibiting action of the test compound on the cAMP increasing action by PGE2.
The rat EP2 receptor cDNA was subcloned into an expression vector (pcDNA3.1-V5-His-topo, manufactured by Invitrogen Corporation). This expression vector was introduced into CHO-K1 cells (American Type Culture Collection) to prepare a rat EP2 receptor stable expression cell line. These cells were seeded onto a 96-well microplate at 0.5×10^4 cell/well, and used for the experiment the next day. The culture medium of each well was removed by suction, 100 μL/well of an assay culture medium (α-MEM containing 2 μM indomethacin and 0.1% bovine serum albumin) was added thereto, and incubated at 37° C. for 1 hour. The culture medium was removed again by suction, and replaced with 100 μL/well of an assay culture medium containing a test compound and 1 mM IBMX. […] Using a cAMP femto 2 kit (manufactured by Cis Bio International), the cAMP concentration in the cell lysate was measured. In this connection, the cAMP increasing action (%) was calculated with the cAMP increasing action by 1 μM PGE2 was taken as 100%.

`CN(Cc1c(Cl)cc(Cl)c(=O)n1CCc1ccc(C(=O)O)cc1)c1cccc(Cl)c1` [Example 160] was tested, and the IC50 [1] was 2700 nM and the “Rat EP2 Agonistic Action 10 μM” value [2] was 19%.

Compound `O=C(O)c1ccc(CCn2c(CN3CCc4ccc(F)cc43)c(Cl)cc(Cl)c2=O)cc1` [Example 9, 4-(2-{3,5-dichloro-6-[(6-fluoro-2,3-dihydro-1H-indol-1-yl)methyl]-2-oxopyridin-1(21-1)-yl}ethyl)benzoic acid] has an IC50 [1] of 1000 nM.

`O=C(O)c1ccc(CCn2c(CNc3cccc(OC(F)(F)F)c3)c(Cl)cc(Cl)c2=O)cc1` [Example 107] was tested, and the IC50 [1] was > 10000 nM.

With `CCC[C@H]1CCCN1Cc1c(Cl)cc(Cl)c(=O)n1CCc1ccc(C(=O)O)cc1` [Example 17, 4-{2-[3,5-dichloro-2-oxo-6-{[(2S)-2-propylpyrrolidin-1-yl]methyl}pyridin-1(2H)-yl]ethyl}benzoic acid trifluoroacetate] the IC50 [1] was 2100 nM and the “Rat EP2 Agonistic Action 10 μM” value [2] was 14%.
